{
  "source": "ChEMBL document CHEMBL1201862",
  "about": "“PubChem BioAssay data set” (2004)",
  "test_in_all_cases": "NCI tumour cell line growth inhibition, 48 h",
  "key": {"786-0": {"system": "786-0"}, "A549": {"system": "A549"}, "ACHN": {"system": "ACHN"}, "BT-549": {"system": "BT-549"}, "CAKI-1": {"system": "CAKI-1"}, "CCRF-CEM": {"system": "CCRF-CEM"}, "COLO 205": {"system": "COLO 205"}, "DU-145": {"system": "DU-145"}, "EKVX": {"system": "EKVX"}, "HCC 2998": {"system": "HCC 2998"}, "HCT-116": {"system": "HCT-116"}, "HCT-15": {"system": "HCT-15"}, "HL-60": {"system": "HL-60"}, "HOP-62": {"system": "HOP-62"}, "HT-29": {"system": "HT-29"}, "Hs-578T": {"system": "Hs-578T"}, "IGROV-1": {"system": "IGROV-1"}, "K562": {"system": "K562"}, "KM12": {"system": "KM12"}, "LOX IMVI": {"system": "LOX IMVI"}, "M14": {"system": "M14"}, "MCF7": {"system": "MCF7"}, "MDA-MB-435": {"system": "MDA-MB-435"}, "MDA-N": {"system": "MDA-N"}, "MOLT-4": {"system": "MOLT-4"}, "Malme-3M": {"system": "Malme-3M"}, "NCI-H226": {"system": "NCI-H226"}, "NCI-H23": {"system": "NCI-H23"}, "NCI-H460": {"system": "NCI-H460"}, "NCI-H522": {"system": "NCI-H522"}, "NCI/ADR-RES": {"system": "NCI/ADR-RES"}, "OVCAR-3": {"system": "OVCAR-3"}, "OVCAR-4": {"system": "OVCAR-4"}, "OVCAR-5": {"system": "OVCAR-5"}, "OVCAR-8": {"system": "OVCAR-8"}, "PC-3": {"system": "PC-3"}, "RPMI-8226": {"system": "RPMI-8226"}, "SF-268": {"system": "SF-268"}, "SF-295": {"system": "SF-295"}, "SF-539": {"system": "SF-539"}, "SK-MEL-28": {"system": "SK-MEL-28"}, "SK-MEL-2": {"system": "SK-MEL-2"}, "SK-MEL-5": {"system": "SK-MEL-5"}, "SK-OV-3": {"system": "SK-OV-3"}, "SN12C": {"system": "SN12C"}, "SNB-19": {"system": "SNB-19"}, "SNB-75": {"system": "SNB-75"}, "SR": {"system": "SR"}, "SW-620": {"system": "SW-620"}, "T47D": {"system": "T47D"}, "TK-10": {"system": "TK-10"}, "U-251": {"system": "U-251"}, "UACC-257": {"system": "UACC-257"}, "UACC-62": {"system": "UACC-62"}, "UO-31": {"system": "UO-31"}},
  "note": "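1) Cells in 96-well plates. 2) Compound, 48 h, 5 concentrations. 3) Linear interpolation between surrounding doses. 4) Unreached endpoint = highest concentration. At the GI50, growth is halved.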 Activity calls are given as the source filed them. Cut-off read from the data, not from the text of the source: active = GI50 up to about 1.1 µM and inactive = higher.",
  "data": [
    {"smiles": "O=C(CCCn1ccnc1[N+](=O)[O-])NCCn1cnc([N+](=O)[O-])c1", "values": [
      {"measurement": "GI50", "setting": "786-0", "value": "> 100 µM (inactive)"},
      {"measurement": "GI50", "setting": "A549", "value": "> 100 µM (inactive)"},
      {"measurement": "GI50", "setting": "ACHN", "value": "> 100 µM (inactive)"},
      {"measurement": "GI50", "setting": "BT-549", "value": "> 100 µM (inactive)"},
      {"measurement": "GI50", "setting": "CAKI-1", "value": "> 100 µM (inactive)"},
      {"measurement": "GI50", "setting": "CCRF-CEM", "value": "> 100 µM (inactive)"},
      {"measurement": "GI50", "setting": "COLO 205", "value": "> 100 µM (inactive)"},
      {"measurement": "GI50", "setting": "DU-145", "value": "> 100 µM (inactive)"},
      {"measurement": "GI50", "setting": "EKVX", "value": "> 100 µM (inactive)"},
      {"measurement": "GI50", "setting": "HCC 2998", "value": "> 100 µM (inactive)"},
      {"measurement": "GI50", "setting": "HCT-116", "value": "> 100 µM (inactive)"},
      {"measurement": "GI50", "setting": "HCT-15", "value": "> 100", "unit": "µM"},
      {"measurement": "GI50", "setting": "HL-60", "value": "> 100 µM (inactive)"},
      {"measurement": "GI50", "setting": "HOP-62", "value": "> 100 µM (inactive)"},
      {"measurement": "GI50", "setting": "HT-29", "value": "> 100 µM (inactive)"},
      {"measurement": "GI50", "setting": "Hs-578T", "value": "> 100 µM (inactive)"},
      {"measurement": "GI50", "setting": "IGROV-1", "value": "> 100 µM (inactive)"},
      {"measurement": "GI50", "setting": "K562", "value": "> 100 µM (inactive)"},
      {"measurement": "GI50", "setting": "KM12", "value": "> 100 µM (inactive)"},
      {"measurement": "GI50", "setting": "LOX IMVI", "value": "> 100 µM (inactive)"},
      {"measurement": "GI50", "setting": "M14", "value": "> 100 µM (inactive)"},
      {"measurement": "GI50", "setting": "MCF7", "value": "> 100 µM (inactive)"},
      {"measurement": "GI50", "setting": "MDA-MB-435", "value": "> 100 µM (inactive)"},
      {"measurement": "GI50", "setting": "MDA-N", "value": "> 100 µM (inactive)"},
      {"measurement": "GI50", "setting": "MOLT-4", "value": "> 100 µM (inactive)"},
      {"measurement": "GI50", "setting": "Malme-3M", "value": "> 100 µM (inactive)"},
      {"measurement": "GI50", "setting": "NCI-H226", "value": "> 100 µM (inactive)"},
      {"measurement": "GI50", "setting": "NCI-H23", "value": "> 100 µM (inactive)"},
      {"measurement": "GI50", "setting": "NCI-H460", "value": "> 100 µM (inactive)"},
      {"measurement": "GI50", "setting": "NCI-H522", "value": "> 100 µM (inactive)"},
      {"measurement": "GI50", "setting": "NCI/ADR-RES", "value": "> 100 µM (inactive)"},
      {"measurement": "GI50", "setting": "OVCAR-3", "value": "> 100 µM (inactive)"},
      {"measurement": "GI50", "setting": "OVCAR-4", "value": "> 100 µM (inactive)"},
      {"measurement": "GI50", "setting": "OVCAR-5", "value": "> 100 µM (inactive)"},
      {"measurement": "GI50", "setting": "OVCAR-8", "value": "> 100 µM (inactive)"},
      {"measurement": "GI50", "setting": "PC-3", "value": "> 100 µM (inactive)"},
      {"measurement": "GI50", "setting": "RPMI-8226", "value": "> 100 µM (inactive)"},
      {"measurement": "GI50", "setting": "SF-268", "value": "> 100 µM (inactive)"},
      {"measurement": "GI50", "setting": "SF-295", "value": "> 100 µM (inactive)"},
      {"measurement": "GI50", "setting": "SF-539", "value": "> 100 µM (inactive)"},
      {"measurement": "GI50", "setting": "SK-MEL-28", "value": "> 100 µM (inactive)"},
      {"measurement": "GI50", "setting": "SK-MEL-2", "value": "> 100 µM (inactive)"},
      {"measurement": "GI50", "setting": "SK-MEL-5", "value": "> 100 µM (inactive)"},
      {"measurement": "GI50", "setting": "SK-OV-3", "value": "> 100 µM (inactive)"},
      {"measurement": "GI50", "setting": "SN12C", "value": "> 100 µM (inactive)"},
      {"measurement": "GI50", "setting": "SNB-19", "value": "> 100 µM (inactive)"},
      {"measurement": "GI50", "setting": "SNB-75", "value": "> 100 µM (inactive)"},
      {"measurement": "GI50", "setting": "SR", "value": "> 100 µM (inactive)"},
      {"measurement": "GI50", "setting": "SW-620", "value": "> 100 µM (inactive)"},
      {"measurement": "GI50", "setting": "T47D", "value": "> 100 µM (inactive)"},
      {"measurement": "GI50", "setting": "TK-10", "value": "> 100 µM (inactive)"},
      {"measurement": "GI50", "setting": "U-251", "value": "> 100 µM (inactive)"},
      {"measurement": "GI50", "setting": "UACC-257", "value": "> 100 µM (inactive)"},
      {"measurement": "GI50", "setting": "UACC-62", "value": "> 100 µM (inactive)"},
      {"measurement": "GI50", "setting": "UO-31", "value": "> 100 µM (inactive)"}
    ]}
  ]
}
